Data from PubChem BioAssay AID256 (DTP/NCI, 2004).
“And” between values parts separate entries of the source, which are not always exact repeats. Equal entries are not always repeated. Toxic doses and inconclusive results are not listed.

Test system: CD2F1 mice, L1210 leukemia ip, survival T/C
Test: NCI In Vivo Anticancer Drug Screen. Data for tumor model L1210 Leukemia (intraperitoneal) in CD2F1 (CDF1) mice
Conditions: higher = longer survival
Summary of the method: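 Mice carrying a transplanted tumor received test compound or vehicle alone. The value is the measurement in the treated group divided by that in the vehicle-treated control group.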

[1] = endpoint: mean survival time, dose: 100.0 mg/kg/injection, schedule: Q04DX003 (ip), vehicle: saline with Tween-80
[2] = endpoint: mean survival time, dose: 200.0 mg/kg/injection, schedule: Q04DX003 (ip), vehicle: saline with Tween-80
[3] = endpoint: mean survival time, dose: 400.0 mg/kg/injection, schedule: Q04DX003 (ip), vehicle: saline with Tween-80
[4] = endpoint: mean survival time, dose: 100.0 mg/kg/injection, schedule: Q01DX009 (ip), vehicle: saline with Tween-80
[5] = endpoint: mean survival time, dose: 200.0 mg/kg/injection, schedule: Q01DX009 (ip), vehicle: saline with Tween-80
[6] = endpoint: mean survival time, dose: 400.0 mg/kg/injection, schedule: Q01DX009 (ip), vehicle: saline with Tween-80
[7] = endpoint: mean survival time, dose: 100.0 mg/kg/injection, schedule: Q04DX002 (ip), vehicle: saline with Tween-80
[8] = endpoint: mean survival time, dose: 200.0 mg/kg/injection, schedule: Q04DX002 (ip), vehicle: saline with Tween-80
[9] = endpoint: mean survival time, dose: 50.0 mg/kg/injection, schedule: Q01DX009 (ip), vehicle: saline with Tween-80

## NC1CCCCC1N.O=C(Nc1ccc2c(O)cc(S(=O)(=O)[O-])cc2c1)c1ccccc1.O=C(Nc1ccc2c(O)cc(S(=O)(=O)[O-])cc2c1)c1ccccc1.[Pt+4]
endpoint: median survival time, dose: 1.56 mg/kg/injection, schedule: Q04DX003 (ip), vehicle: saline with Tween-80
  T/C: 166 % of control
endpoint: median survival time, dose: 3.12 mg/kg/injection, schedule: Q04DX003 (ip), vehicle: saline with Tween-80
  T/C: 204 % of control and 344 % of control
endpoint: median survival time, dose: 6.25 mg/kg/injection, schedule: Q04DX003 (ip), vehicle: saline with Tween-80
  T/C: 289 % of control and 344 % of control
endpoint: median survival time, dose: 12.5 mg/kg/injection, schedule: Q04DX003 (ip), vehicle: saline with Tween-80
  T/C: 289 % of control
endpoint: median survival time, dose: 25.0 mg/kg/injection, schedule: Q04DX003 (ip), vehicle: saline with Tween-80
  T/C: 91 % of control

## CC1(C)C(=O)C2(I)CCC1C2 (stereo not drawn)
[1]
  T/C: 101 % of control
[2]
  T/C: 98 % of control
[3]
  T/C: 98 % of control

## Nc1cc(I)c2cccnc2c1O
endpoint: mean survival time, dose: 6.25 mg/kg/injection, schedule: Q01DX009 (ip), vehicle: saline
  T/C: 96 % of control
endpoint: mean survival time, dose: 12.5 mg/kg/injection, schedule: Q01DX009 (ip), vehicle: saline
  T/C: 111 % of control
endpoint: mean survival time, dose: 25.0 mg/kg/injection, schedule: Q01DX009 (ip), vehicle: saline
  T/C: 100 % of control
endpoint: mean survival time, dose: 50.0 mg/kg/injection, schedule: Q01DX009 (ip), vehicle: saline
  T/C: 108 % of control

## c1ccc([O+](c2ccccc2)c2ccccc2)cc1
endpoint: mean survival time, dose: 0.63 mg/kg/injection, schedule: Q01DX009 (ip), vehicle: saline with Tween-80
  T/C: 102 % of control
endpoint: mean survival time, dose: 1.25 mg/kg/injection, schedule: Q01DX009 (ip), vehicle: saline with Tween-80
  T/C: 113 % of control
endpoint: mean survival time, dose: 2.5 mg/kg/injection, schedule: Q01DX009 (ip), vehicle: saline with Tween-80
  T/C: 107 % of control
endpoint: mean survival time, dose: 5.0 mg/kg/injection, schedule: Q01DX009 (ip), vehicle: saline with Tween-80
  T/C: 90 % of control and 112 % of control

## O=[N+]([O-])c1cc(Cl)ccc1NC(Nc1ccc(Cl)cc1[N+](=O)[O-])C(Cl)(Cl)Cl
[4]
  T/C: 101 % of control
[5]
  T/C: 106 % of control
[6]
  T/C: 101 % of control

## C=C(c1ccccc1)C(C)C(=O)OCC (stereo not drawn)
[1]
  T/C: 103 % of control
[2]
  T/C: 103 % of control
[3]
  T/C: 100 % of control

## Cc1ccc(S(=O)(=O)OCC2OCOC(COS(=O)(=O)c3ccc(C)cc3)C(OS(=O)(=O)c3ccc(C)cc3)C2OS(=O)(=O)c2ccc(C)cc2)cc1 (stereo not drawn)
[7]
  T/C: 88 % of control
[8]
  T/C: 100 % of control
endpoint: mean survival time, dose: 400.0 mg/kg/injection, schedule: Q04DX002 (ip), vehicle: saline with Tween-80
  T/C: 107 % of control

## CCCC/C=C/C(C)(C)O
[9]
  T/C: 107 % of control
[4]
  T/C: 103 % of control
[5]
  T/C: 107 % of control

## C=CCCCCC(=O)c1ccccc1
endpoint: mean survival time, dose: 50.0 mg/kg/injection, schedule: Q04DX002 (ip), vehicle: saline with Tween-80
  T/C: 100 % of control
[7]
  T/C: 93 % of control
[8]
  T/C: 104 % of control

## C=CCNC(=S)NCC
[4]
  T/C: 98 % of control
endpoint: mean survival time, dose: 100.0 mg/kg/injection, schedule: Q04DX003 (ip), vehicle: saline sonified
  T/C: 101 % of control
[5]
  T/C: 101 % of control
endpoint: mean survival time, dose: 200.0 mg/kg/injection, schedule: Q04DX003 (ip), vehicle: saline sonified
  T/C: 97 % of control
[6]
  T/C: 102 % of control
endpoint: mean survival time, dose: 400.0 mg/kg/injection, schedule: Q04DX003 (ip), vehicle: saline sonified
  T/C: 101 % of control

## CCOC(CCC#N)c1ccc(Cl)cc1 (stereo not drawn)
endpoint: mean survival time, dose: 100.0 mg/kg/injection, schedule: Q01DX009 (ip), vehicle: saline
  T/C: 98 % of control
[1]
  T/C: 92 % of control
endpoint: mean survival time, dose: 200.0 mg/kg/injection, schedule: Q01DX009 (ip), vehicle: saline
  T/C: 101 % of control
[2]
  T/C: 100 % of control
endpoint: mean survival time, dose: 400.0 mg/kg/injection, schedule: Q01DX009 (ip), vehicle: saline
  T/C: 98 % of control
[3]
  T/C: 102 % of control

## CCNc1nc(NCC)nc(OC)n1
[9]
  T/C: 95 % of control
[4]
  T/C: 105 % of control
[1]
  T/C: 87 % of control
[5]
  T/C: 103 % of control
[2]
  T/C: 89 % of control
